Data from patent publication US9957253B2, “Triaminopyrimidine compounds useful for preventing or treating malaria” (MMV MEDICINES FOR MALARIA VENTURE, priority 2014, dated 2018).

Key:
[1] = test system: P. vivax field isolates; assay: Ex vivo drug susceptibility (schizont maturation) of P. vivax field isolates; format: cell-based; details: Plasmodium vivax; Plasmodium field isolates, ex vivo; read-out: P. vivax IC50
Experimental: (§1) Further, compounds of the invention (Examples 2 and 13) were also tested against field isolates of falciparum and vivax malaria, along with three control antimalarials as described in the protocol below.
(§2) Ex Vivo Activity of Examples 2 and 13 Against Drug Resistant P. falciparum and P. Vivax Field Isolates
(§3) Standard antimalarial drugs chloroquine (CQ), amodiaquine (AQ), piperaquine (PIP), mefloquine (MFQ), and artesunate (AS) and compounds of the invention were prepared as 1 mg/mL stock solutions in H2O or dimethyl sulfoxide (DMSO) according to the manufacturers' instructions. Drug plates were pre-dosed by diluting the compounds in 50% Methanol followed by lyophilisation and stored at 4° C.
(§4) Plasmodium isolates were collected from patients attending malaria clinics in Timika (Papua, Indonesia), a region endemic for multi-drug-resistant strains of P. vivax and P. falciparum. Patients with symptomatic malaria presenting to an outpatient facility were recruited into the study if singly infected with P. falciparum or P. vivax, with a parasitaemia of between 2,000 μl-1 and 80,000 μl-1, and the majority (>80%) of parasites at ring stage of development. Venous blood (5 mL) was collected by venipuncture and after removal of host white blood cells by using cellulose (Sigma-Aldrich, Australia) filtration, packed infected red blood cells (iRBCs) were used for the ex vivo drug susceptibility assay.
(§5) Drug susceptibility of P. vivax and P. falciparum isolates was measured using a protocol modified from the WHO microtest as described previously (Marfurt et al., 2011, Antimicrob Agents Chemother., 55(9):4461). Two hundred μL of a 2% haematocrit Blood Media Mixture (BMM), consisting of RPMI 1640 medium plus 10% AB+ human serum (P. falciparum) or McCoy's 5 A medium plus 20% AB+ human serum (P. vivax), was added to each well of pre-dosed drug plates containing 11 serial concentrations (2-fold dilutions) of the antimalarials (maximum concentration shown in brackets) CQ (2,992 nM), AQ (158 nM), PIP (1,029 nM), MFQ (338 nM), AS (49 nM), and a compound of the invention (2,146 nM). A candle jar was used to mature the parasites at 37.0° C. for 35-56 hours.
(§6) Thick blood films made from each well were stained with 5% Giemsa solution for 30 minutes and examined microscopically. The number of schizonts per 200 asexual stage parasites was determined for each drug concentration and normalised to the control well. The dose-response data were analysed using nonlinear regression analysis (WinNonLn 4.1, Pharsight Corporation) and the IC50 value derived using an inhibitory sigmoid Emax model. […] Drug plate quality was assured by running schizont maturation assays (two independent experiments) with the chloroquine-resistant strain K1 and the chloroquine-sensitive strain FC27.
(§7) For microscopy slide reading QC, two randomly selected drugs per isolate were read by a second microscopist. […] If necessary, discrepant results were resolved by a third reading by an expert microscopist.

[2] = Reactive intermediate trapping with GSH or NAC in liver microsomes; format: in vitro ADME, human, rat; details: 10 μM, 2 mM GSH or NAC
Experimental: (§8) Metabolites of Example 13 were identified both in vitro and in vivo using the following models: • In vitro: The compound of Example 13 was incubated with human (HLM) or rat (RLM) liver microsomes (1 mg/ml protein concentration in 100 mM phosphate buffer, pH 7.4) at a final concentration of 10 μM in the presence of 2 mM NADPH. The reactive intermediates were trapped by including 2 mM glutathione (GSH) or N-acetyl cysteine (NAC) in the reaction mix. • In vivo in bile duct cannulated rats: Example 13 was administered intravenously (IV) as a bolus through the jugular vein at a dose of 2 mg/kg or 4 mg/kg of body weight for control (n=3) or BDC rats (n=2), respectively. Blood samples were collected at 0.083, 0.25, 0.5, 1, 2, 4, 6, 8 and 24 h through the carotid artery, bile samples were collected at 0-2 h, 2-4 h, 4-6 h, 6-8 h and 8-24 h intervals and urine samples were collected at 0-8 h and 8-24 h intervals. The bile and urine samples were analyzed for the presence of parent and metabolites and blood samples were analyzed for the presence of parent.

[3] = Pharmacokinetics in the blood of infected Pf/SCID mice; format: in vivo; details: 40 mg/kg
Experimental: Pharmacokinetics in the Blood of Infected Pf/SCID Mice:
Peripheral blood samples (25 μl) were taken at different times (0.25, 0.5, 1, 2, 4, 6, 8 and 23 hours), mixed with 25 µl of H2O mili Q and immediately frozen on dry ice. The frozen samples were stored at −80° C. until analysis. Vehicle-treated mice experienced the same blood-sampling regimen. Blood samples were processed by liquid-liquid extraction by mixing 10 μl diluted blood with 180 μl AcN:MeOH (80:20; v:v) mixture. Quantitative analysis by LC/MSMS was performed using UPLC (Waters) and Sciex API4000. The lower limit of quantification (LLOQ) in this assay was 0.005 μg/ml.

[4] = Conversion of Example 13 to the active metabolite in liver microsomes, species comparison; format: in vitro ADME, mouse, rat, human; details: rank order of species
Experimental: as §8
These studies supported the fact that the compound of Example 2 is an active metabolite of the compound of Example 13 and is formed both in vitro and in vivo.

[5] = test system: Pf parasites; assay: Pf/SCID model efficacy; format: in vivo, P. falciparum; details: oral
Experimental: Blood Cmin (0.04 μM) observed at this dose was considered the minimum parasiticidal concentration (MPC) for the human dose prediction.

[6] = test system: P. falciparum field isolates; assay: Ex vivo drug susceptibility (schizont maturation) of P. falciparum field isolates; format: cell-based; details: Plasmodium falciparum; Plasmodium field isolates, ex vivo; read-out: P. falciparum IC50
Experimental: as §1, §2, §3, §4, §5, §6, §7

Cc1nc(Nc2ncc(N3CCN(C)[C@H](C)C3)c(Nc3cc(C)n(C)n3)n2)cc(C2CC2)c1F [Example 13, (R)—N2-(4-cyclopropyl-5-fluoro-6-methylpyridin-2-yl)-N4-(1,5-dimethyl-1H-pyrazol-3-yl)-5-(3,4-dimethylpiperazin-1-yl)pyrimidine-2,4-diamine]
IC50 [1]: 85.6 nM
GSH or NAC adduct (reactive metabolite) formation [2]: no GSH or NAC adduct formation
Blood Cmin (minimum parasiticidal concentration, MPC) [3]: 40 nM
Percent conversion to the active metabolite (Example 2) [4]: highest in mouse, followed by rat and then human liver microsomes
Dose at which maximum kill rate was observed [5]: 40 mg/kg
IC50 [6]: 74.6 nM
